ChEMBL document CHEMBL3399986, “Rapid 'one-pot' synthesis of a novel benzimidazole-5-carboxylate and its hydrazone derivatives as potential anti-inflammatory and antimicrobial agents” (Bioorg Med Chem Lett, 2015)
Converted amounts (≈) assume the structure as drawn.

Legend:
[1] = system: Rattus norvegicus; test: Antiinflammatory activity in rat assessed as inhibition of carrageenan-induced paw edema administered 30 mins prior to carrageenan challenge measured after 1 hr relative to control; assay type: functional
[2] = system: Rattus norvegicus; test: Antiinflammatory activity in rat assessed as inhibition of carrageenan-induced paw edema administered 30 mins prior to carrageenan challenge measured after 2 hrs relative to control; assay type: functional
[3] = system: Rattus norvegicus; test: Antiinflammatory activity in rat assessed as inhibition of carrageenan-induced paw edema administered 30 mins prior to carrageenan challenge measured after 3 hrs relative to control; assay type: functional
[4] = system: Staphylococcus aureus; test: Antimicrobial activity against Staphylococcus aureus MTCC 3160 after 24 hrs by broth dilution method; assay type: functional; conditions: MTCC 3160, 24 h
[5] = system: Bacillus subtilis; test: Antimicrobial activity against Bacillus subtilis MTCC 441 after 24 hrs by broth dilution method; assay type: functional; conditions: MTCC 441, 24 h
[6] = system: Escherichia coli; test: Antimicrobial activity against Escherichia coli MTCC 4351 after 24 hrs by broth dilution method; assay type: functional; conditions: MTCC 4351, 24 h
[7] = system: Klebsiella pneumoniae; test: Antimicrobial activity against Klebsiella pneumoniae MTCC 3384 after 24 hrs by broth dilution method; assay type: functional; conditions: MTCC 3384, 24 h
[8] = system: Staphylococcus aureus; test: Antimicrobial activity against Staphylococcus aureus MTCC 3160 assessed as zone of inhibition at 5 mg/ml after 24 hrs by agar well diffusion method; assay type: functional; conditions: MTCC 3160, 24 h, read-out: IZ
[9] = system: Bacillus subtilis; test: Antimicrobial activity against Bacillus subtilis MTCC 441 assessed as zone of inhibition at 5 mg/ml after 24 hrs by agar well diffusion method; assay type: functional; conditions: MTCC 441, 24 h, read-out: IZ
[10] = system: Escherichia coli; test: Antimicrobial activity against Escherichia coli MTCC 4351 assessed as zone of inhibition at 5 mg/ml after 24 hrs by agar well diffusion method; assay type: functional; conditions: MTCC 4351, 24 h, read-out: IZ
[11] = system: Klebsiella pneumoniae; test: Antimicrobial activity against Klebsiella pneumoniae MTCC 3384 assessed as zone of inhibition at 5 mg/ml after 24 hrs by agar well diffusion method; assay type: functional; conditions: MTCC 3384, 24 h, read-out: IZ
[12] = system: Aspergillus niger; test: Antifungal activity against Aspergillus niger MTCC 282 after 48 hrs by broth dilution method; assay type: functional; conditions: MTCC 282, 48 h
[13] = system: Candida tropicalis; test: Antifungal activity against Candida tropicalis MTCC 183 after 48 hrs by broth dilution method; assay type: functional; conditions: MTCC 183, 48 h
[14] = system: Candida albicans; test: Antifungal activity against Candida albicans MTCC 461 after 48 hrs by broth dilution method; assay type: functional; conditions: MTCC 461, 48 h
[15] = system: Penicillium chrysogenum; test: Antifungal activity against Penicillium notatum after 48 hrs by broth dilution method; assay type: functional
[16] = system: Aspergillus niger; test: Antifungal activity against Aspergillus niger MTCC 282 assessed as zone of inhibition at 5 mg/ml after 24 hrs by agar well diffusion method; assay type: functional; conditions: MTCC 282, 24 h, read-out: IZ
[17] = system: Candida tropicalis; test: Antifungal activity against Candida tropicalis MTCC 183 assessed as zone of inhibition at 5 mg/ml after 24 hrs by agar well diffusion method; assay type: functional; conditions: MTCC 183, 24 h, read-out: IZ
[18] = system: Candida albicans; test: Antifungal activity against Candida albicans MTCC 461 assessed as zone of inhibition at 5 mg/ml after 24 hrs by agar well diffusion method; assay type: functional; conditions: MTCC 461, 24 h, read-out: IZ
[19] = system: Penicillium chrysogenum; test: Antifungal activity against Penicillium notatum assessed as zone of inhibition at 5 mg/ml after 24 hrs by agar well diffusion method; assay type: functional; conditions: read-out: IZ
[20] = system: MDA-MB-231; test: Cytotoxicity against human MDA-MB-231 cells assessed as cell death at 10 ug/ml after 48 hrs by MTT assay; assay type: cell-based; conditions: mda-mb-231, 48 h
[21] = system: MDA-MB-231; test: Cytotoxicity against human MDA-MB-231 cells assessed as cell death at 5 ug/ml after 48 hrs by MTT assay; assay type: cell-based; conditions: mda-mb-231, 48 h
[22] = system: MDA-MB-231; test: Cytotoxicity against human MDA-MB-231 cells assessed as cell death at 2.5 ug/ml after 48 hrs by MTT assay; assay type: cell-based; conditions: mda-mb-231, 48 h
[23] = system: MDA-MB-231; test: Cytotoxicity against human MDA-MB-231 cells assessed as cell death at 1 ug/ml after 48 hrs by MTT assay; assay type: cell-based; conditions: mda-mb-231, 48 h

CCCn1c(-c2ccc(Cl)cc2Cl)nc2cc(C(=O)N/N=C/c3ccccc3Cl)ccc21
inhibition (INH) [1]: 65.55% | inhibition (INH) [2]: 70.62% | inhibition (INH) [3]: 71.97% | MIC [4]: 25 µg/mL (≈ 51.5 µM) | MIC [5]: 25 µg/mL (≈ 51.5 µM) | MIC [6]: 12.5 µg/mL (≈ 25.7 µM) | MIC [7]: 25 µg/mL (≈ 51.5 µM) | zone of inhibition at 5000 µg/mL [8]: 15 mm | zone of inhibition at 5000 µg/mL [9]: 16 mm | zone of inhibition at 5000 µg/mL [10]: 18 mm | zone of inhibition at 5000 µg/mL [11]: 17 mm | MIC [12]: 6.25 µg/mL (≈ 12.9 µM) | MIC [13]: 6.25 µg/mL (≈ 12.9 µM) | MIC [14]: 12.5 µg/mL (≈ 25.7 µM) | MIC [15]: 12.5 µg/mL (≈ 25.7 µM) | zone of inhibition at 5000 µg/mL [16]: 21 mm | zone of inhibition at 5000 µg/mL [17]: 18 mm | zone of inhibition at 5000 µg/mL [18]: 17 mm | zone of inhibition at 5000 µg/mL [19]: 15 mm | Activity [20]: 2.78% | Activity [21]: 1.61% | Activity [22]: -0.44% | Activity [23]: -2.05%

CCCn1c(-c2ccc(Cl)cc2Cl)nc2cc(C(=O)N/N=C/c3cccc(Cl)c3)ccc21
inhibition (INH) [1]: 49.25% | inhibition (INH) [2]: 45.73% | inhibition (INH) [3]: 43.35% | MIC [4]: 25 µg/mL (≈ 51.5 µM) | MIC [5]: 25 µg/mL (≈ 51.5 µM) | MIC [6]: 6.25 µg/mL (≈ 12.9 µM) | MIC [7]: 50 µg/mL (≈ 103 µM) | zone of inhibition at 5000 µg/mL [8]: 15 mm | zone of inhibition at 5000 µg/mL [9]: 15 mm | zone of inhibition at 5000 µg/mL [10]: 21 mm | zone of inhibition at 5000 µg/mL [11]: 14 mm | MIC [12]: 12.5 µg/mL (≈ 25.7 µM) | MIC [13]: 25 µg/mL (≈ 51.5 µM) | MIC [14]: 100 µg/mL (≈ 206 µM) | MIC [15]: 25 µg/mL (≈ 51.5 µM) | zone of inhibition at 5000 µg/mL [16]: 18 mm | zone of inhibition at 5000 µg/mL [17]: 16 mm | zone of inhibition at 5000 µg/mL [18]: 10 mm | zone of inhibition at 5000 µg/mL [19]: 14 mm

CCCn1c(-c2ccc(Cl)cc2Cl)nc2cc(C(=O)N/N=C/c3ccc(Cl)cc3)ccc21
inhibition (INH) [1]: 56.85% | inhibition (INH) [2]: 53.56% | inhibition (INH) [3]: 46.56% | MIC [4]: 50 µg/mL (≈ 103 µM) | MIC [5]: 12.5 µg/mL (≈ 25.7 µM) | MIC [6]: 50 µg/mL (≈ 103 µM) | MIC [7]: 25 µg/mL (≈ 51.5 µM) | zone of inhibition at 5000 µg/mL [8]: 12 mm | zone of inhibition at 5000 µg/mL [9]: 18 mm | zone of inhibition at 5000 µg/mL [10]: 10 mm | zone of inhibition at 5000 µg/mL [11]: 17 mm | MIC [12]: 25 µg/mL (≈ 51.5 µM) | MIC [13]: 50 µg/mL (≈ 103 µM) | MIC [14]: 12.5 µg/mL (≈ 25.7 µM) | MIC [15]: 25 µg/mL (≈ 51.5 µM) | zone of inhibition at 5000 µg/mL [16]: 17 mm | zone of inhibition at 5000 µg/mL [17]: 14 mm | zone of inhibition at 5000 µg/mL [18]: 17 mm | zone of inhibition at 5000 µg/mL [19]: 13 mm

CCCn1c(-c2ccc(Cl)cc2Cl)nc2cc(C(=O)N/N=C/c3ccccc3F)ccc21
inhibition (INH) [1]: 60.55% | inhibition (INH) [2]: 67.78% | inhibition (INH) [3]: 68.9% | MIC [4]: 12.5 µg/mL (≈ 26.6 µM) | MIC [5]: 6.25 µg/mL (≈ 13.3 µM) | MIC [6]: 6.25 µg/mL (≈ 13.3 µM) | MIC [7]: 12.5 µg/mL (≈ 26.6 µM) | zone of inhibition at 5000 µg/mL [8]: 17 mm | zone of inhibition at 5000 µg/mL [9]: 19 mm | zone of inhibition at 5000 µg/mL [10]: 20 mm | zone of inhibition at 5000 µg/mL [11]: 18 mm | MIC [12]: 3.12 µg/mL (≈ 6.65 µM) | MIC [13]: 6.25 µg/mL (≈ 13.3 µM) | MIC [14]: 6.25 µg/mL (≈ 13.3 µM) | MIC [15]: 12.5 µg/mL (≈ 26.6 µM) | zone of inhibition at 5000 µg/mL [16]: 22 mm | zone of inhibition at 5000 µg/mL [17]: 18 mm | zone of inhibition at 5000 µg/mL [18]: 19 mm | zone of inhibition at 5000 µg/mL [19]: 16 mm
